We go through 4 compounds from ChEMBL document CHEMBL1154503, “Calmodulin inhibitors from the fungus Emericella sp” (Bioorg Med Chem, 2009).

For assay [1], the target named is T1, Calmodulin-1 (Homo sapiens, UniProt P0DP23). The assay is described as follows: Inhibition of recombinant calmodulin mediated bovine brain PDE1 activation assessed as effect on inorganic phosphate release by spectrophotometry.
In assay [2] the target is T1, Calmodulin-1. Nature of the assay: Inhibition of recombinant calmodulin mediated bovine brain PDE1 activation assessed as effect on inorganic phosphate release using variable calmodulin level by spectrophotometry.

A word on the IC50: it is the concentration that gives 50% inhibition. One may read the Ki as a dissociation constant, usually derived from enzyme kinetics or from competition with a known ligand.

For the compound `C=C(C)[C@H]1COc2c(C)cc3oc4c(C[C@H](Cl)C(C)(C)O)ccc(O)c4c(=O)c3c2[C@@H]1O`, at Calmodulin-1 [1], the half-inhibitory concentration (IC50) worked out at 9.59 µM.
For the compound `C=C(C)[C@H]1COc2c(C)cc3oc4c([C@H](OC)[C@@H]5OC5(C)C)ccc(O)c4c(=O)c3c2[C@@H]1O`, the Ki at Calmodulin-1 [2] turned out to be 25.4 µM. On Calmodulin-1 [1], the IC50 was 5.54 µM.
On to `C=C(C)[C@H]1COc2c(C)cc3oc4c(CC=C(C)C)ccc(O)c4c(=O)c3c2[C@@H]1O` [SHAMIXANTHONE], for which, on Calmodulin-1 [1], the IC50 was 29.2 µM.
Turning to `C=C(C)[C@H]1COc2c(C)cc3oc4c(C[C@H](O)C(C)(C)O)ccc(O)c4c(=O)c3c2[C@@H]1O` [TAJIXANTHONE HYDRATE], the Ki on Calmodulin-1 [2] worked out at 13.9 µM. At Calmodulin-1 [1], the 50% inhibitory concentration (IC50) is 5.62 µM.
